Tests used:
[1] = Dynamic light scattering (DLS) of mRNA/peptoid formulations: particle size and polydispersity; assay type: physicochemical; conditions: Fluc mRNA/peptoid formulation; for Size PDI: size polydispersity index by DLS, 5:1 mass ratio; for Size (nm): volume average particle size/diameter by DLS, 5:1 mass ratio peptoid:cargo
Description: To prepare nanoparticle formulations, the amino lipidated peptoid is mixed by pipetting with nucleic acid at a mass ratio between approximately 1:1 (peptoid:cargo) and 20:1. Prior to formulation, amino lipidated peptoid and nucleic acid cargo were diluted in ethanol and acidic buffer (PBS adjusted to pH 5.5 with 0.1 M HCl) respectively to a volume ratio of 1:3 and to target a final cargo concentration of approximately 0.05 mg/mL to 0.2 mg/mL. The exemplary amino lipidated cationic peptoids described in Example 2 were combined with firefly luciferase (Fluc) mRNA to form nanoparticle compositions to be evaluated for therapeutic and/or prophylactic purposes in vitro or in vivo. The formulations were prepared according to the protocol of Example 3 and mixed by simple pipetting. The mRNA/peptoid formulation at a 5:1 mass ratio of peptoid:cargo were evaluated by dynamic light scattering (DLS) in order to determine the volume average particle size/diameter (nm) of the mRNA/peptoid complex and the size polydispersity index (PDI) within the formulation. The percentage of mRNA encapsulation for each formulation of the exemplary compounds were determined by fluorescence of the Qubit RNA HS (Invitrogen) dye before and after lysis of particles by Triton X-100.

[2] = mRNA encapsulation by fluorescence of Qubit RNA HS dye before and after lysis with Triton X-100; assay type: physicochemical; conditions: percentage of mRNA encapsulation; Fluc mRNA/peptoid formulation, 5:1 mass ratio
Summary of the method: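 Encapsulation was measured by comparing Qubit RNA HS fluorescence of intact particles with that after Triton X-100 lysis. Particles were amino-lipidated cationic peptoids complexed with firefly luciferase mRNA at 5:1 peptoid:cargo by mass, mixed by pipetting.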

HeLa cells [3] = test: In vitro expression of firefly luciferase (Fluc) after treatment with Fluc mRNA/amino lipidated peptoid formulations, no PEG or 2% DMG-PEG2000; assay type: cell-based
Summary of the method: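 HeLa cells received 100 ng/well Fluc mRNA complexed with amino lipidated peptoid at 5:1 peptoid:mRNA (w/w), either peptoid alone or with 2% w/w DMG-PEG2000. Expression quantified as RLU by luminescence at 6 and 24 h.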

HeLa cells [4] = test: In vitro Fluc expression with variable peptoid:mRNA mass ratio, 2% DMG-PEG2000; assay type: cell-based; conditions: 24 h; for Observed Luciferase Expression (RLU) for Given Formulation Mass Ratio 2:1: 2% (w/w) DMG-PEG2000, peptoid:mRNA 2:1; for Observed Luciferase Expression (RLU) for Given Formulation Mass Ratio 3.5:1: 2% (w/w) DMG-PEG2000, peptoid:mRNA 3.5:1; for Observed Luciferase Expression (RLU) for Given Formulation Mass Ratio 5:1: 2% (w/w) DMG-PEG2000, peptoid:mRNA 5:1; for Observed Luciferase Expression (RLU) for Given Formulation Mass Ratio 7.5:1: 2% (w/w) DMG-PEG2000, peptoid:mRNA 7.5:1
Summary of the method: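 HeLa cells exposed 24 hours to amino lipidated peptoid/Fluc mRNA formulations containing 2% w/w DMG-PEG2000 (relative to peptoid), across peptoid:mRNA mass ratios of 2:1 to 7.5:1. Read-out: average luciferase bioluminescence (RLU).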

[5] = MTT viability assay after treatment with Fluc mRNA/amino lipidated peptoid formulations; assay type: cell-based; conditions: human, HeLa cells
Summary of the method: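 Viability relative to untreated cells came from the formazan read-out after 2 h with 1.5 mg/mL MTT and acidic isopropanol/Triton lysis. The MTT step followed an 8 h exposure to 100 ng/well Fluc mRNA in 5:1 peptoid:mRNA, 2% DMG-PEG2000 formulations and a further 48 h of culture.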

[6] = no PEG, peptoid:Fluc mRNA 5:1 w/w, 100 ng/well, 6 h of treatment
[7] = no PEG, peptoid:Fluc mRNA 5:1 w/w, 100 ng/well, 24 h of treatment
[8] = with 2% (w/w) DMG-PEG2000, peptoid:mRNA 5:1, 6 h after treatment
[9] = with 2% (w/w) DMG-PEG2000, peptoid:mRNA 5:1, 24 h after treatment

| Size PDI [1] | Size (nm) [1] | % Encapsulation [2] | Compound | Luciferase Expression (RLU) 6 h (HeLa cells [3]; [6]) | Luciferase Expression (RLU) 24 h (HeLa cells [3]; [7]) | Luciferase Expression (RLU) 6 h (HeLa cells [3]; [8]) | Luciferase Expression (RLU) 24 h (HeLa cells [3]; [9]) | Observed Luciferase Expression (RLU) for Given Formulation Mass Ratio 2:1 (HeLa cells [4]) | Observed Luciferase Expression (RLU) for Given Formulation Mass Ratio 3.5:1 (HeLa cells [4]) | Observed Luciferase Expression (RLU) for Given Formulation Mass Ratio 5:1 (HeLa cells [4]) | Observed Luciferase Expression (RLU) for Given Formulation Mass Ratio 7.5:1 (HeLa cells [4]) | viability at 8 h, 500 ng/well ([5]; Relative Viability (%) 2% PEG) | viability at 8 h, 500 ng/well ([5]; Relative Viability (%) No PEG) |
| --- | --- | --- | --- | --- | --- | --- | --- | --- | --- | --- | --- | --- | --- |
| 0.048 | 435.7 nm | 82.0% | CCCCCCCCCCN(CC(N)=O)C(=O)CN(CCCCCCCCCC)C(=O)CN(CCc1ccccc1)C(=O)CN(CCc1ccccc1)C(=O)CN(CC1CCNCC1)C(=O)CN(CCc1ccccc1)C(=O)CN(CCc1ccccc1)C(=O)CN(CC1CCNCC1)C(=O)CN(CCc1ccccc1)C(=O)CN(CCc1ccccc1)C(=O)CNCC1CCNCC1 [Compound 33] | 4.61E+03 RLU | 1.14E+04 RLU | 4.64E+02 RLU | 5.17E+02 RLU | 1.76E+04 RLU | 6.62E+02 RLU | 7.46E+02 RLU | 3.12E+02 RLU | 98% | 99.4% |
| 0.762 | 593 nm | 88.5% | CCCCCCCCCCNCC(=O)N(CCN)CC(=O)N(CCc1ccccc1)CC(=O)N(CCc1ccccc1)CC(=O)N(CCN)CC(=O)N(CCc1ccccc1)CC(=O)N(CCc1ccccc1)CC(=O)N(CCN)CC(=O)N(CCc1ccccc1)CC(=O)N(CCc1ccccc1)CC(=O)N(CCCCCCCCCC)CC(N)=O [Compound 18] | 5.74E+02 RLU | 8.49E+02 RLU | 8.50E+01 RLU | 1.22E+02 RLU | 1.53E+03 RLU | 3.00E+03 RLU | 9.99E+02 RLU | 2.41E+01 RLU | 89.3% | 86.1% |
| 0.606 | 438.7 nm | 50.9% | CCCCCCCCCCN(CC(N)=O)C(=O)CN(CCCCCCCCCC)C(=O)CN(CCc1ccccc1)C(=O)CN(CCc1ccccc1)C(=O)CN(CCNC)C(=O)CN(CCc1ccccc1)C(=O)CN(CCc1ccccc1)C(=O)CN(CCNC)C(=O)CN(CCc1ccccc1)C(=O)CN(CCc1ccccc1)C(=O)CNCCNC [Compound 27] | 9.88E+02 RLU | 7.40E+02 RLU | 3.13E+02 RLU | 6.36E+02 RLU | 6.27E+03 RLU | 8.40E+02 RLU | 8.69E+02 RLU | 6.41E+02 RLU | 91.1% | 93.9% |
| 0.127 | 374.4 nm | 71.5% | CCCCCCCCCCN(CC(N)=O)C(=O)CN(CCCCCCCCCC)C(=O)CN(CCc1ccccc1)C(=O)CN(CCc1ccccc1)C(=O)CN(CC1CCCN1)C(=O)CN(CCc1ccccc1)C(=O)CN(CCc1ccccc1)C(=O)CN(CC1CCCN1)C(=O)CN(CCc1ccccc1)C(=O)CN(CCc1ccccc1)C(=O)CNCC1CCCN1 (centres unmarked) [Compound 36] | 9.34E+03 RLU | 7.78E+03 RLU | 3.36E+02 RLU | 7.45E+02 RLU | 9.24E+02 RLU | 4.18E+02 RLU | 5.17E+02 RLU | 6.71E+02 RLU | 108% | 93.6% |
| 0.455 | 282.8 nm | 8.4% | CCCCCCCCCCN(CC(N)=O)C(=O)CN(CCCCCCCCCC)C(=O)CN(CCc1ccccc1)C(=O)CN(CCc1ccccc1)C(=O)CN(CCCN)C(=O)CN(CCc1ccccc1)C(=O)CN(CCc1ccccc1)C(=O)CN(CCCN)C(=O)CN(CCc1ccccc1)C(=O)CN(CCc1ccccc1)C(=O)CNCCCN [Compound 30] | 2.79E+03 RLU | 1.29E+04 RLU | 1.79E+03 RLU | 1.52E+03 RLU | 4.27E+04 RLU | 3.43E+03 RLU | 3.46E+03 RLU | 1.47E+03 RLU | 88% | 86.5% |
| 0.274 | 247.5 nm | 50.9% | CCCCCCCCCCN(CC(N)=O)C(=O)CN(CCCCCCCCCC)C(=O)CN(CCCCCCCCCC)C(=O)CN(CCCCCCCCCC)C(=O)CN(CCc1ccccc1)C(=O)CN(CCc1ccccc1)C(=O)CN(CC1CCNCC1)C(=O)CN(CCc1ccccc1)C(=O)CN(CCc1ccccc1)C(=O)CN(CC1CCNCC1)C(=O)CN(CCc1ccccc1)C(=O)CN(CCc1ccccc1)C(=O)CN(CC1CCNCC1)C(=O)CN(CCc1ccccc1)C(=O)CN(CCc1ccccc1)C(=O)CNCC1CCNCC1 [Compound 32] | 4.25E+02 RLU | 2.00E+03 RLU | 4.82E+02 RLU | 3.40E+02 RLU | 1.82E+02 RLU | 3.09E+02 RLU | 3.77E+03 RLU | 3.37E+03 RLU | 102% | 90.7% |
| 0.37 | 472.8 nm | 90.3% | CCCCCCCCCCN(CC(=O)N(CCN)CC(=O)N(CCc1ccccc1)CC(=O)N(CCc1ccccc1)CC(=O)N(CCCCCCCCCC)CC(=O)N(CCN)CC(=O)N(CCc1ccccc1)CC(=O)N(CCc1ccccc1)CC(N)=O)C(=O)CN(CCc1ccccc1)C(=O)CN(CCc1ccccc1)C(=O)CNCCN [Compound 17] | 6.84E+02 RLU | 5.63E+02 RLU | 8.67E+01 RLU | 1.80E+02 RLU | 2.72E+03 RLU | 1.56E+03 RLU | 1.60E+03 RLU | 3.75E+01 RLU | 91.7% | 88% |
| 0.538 | 748.2 nm | 65.4% | CCCCCCCCCCN(CC(N)=O)C(=O)CN(CCCCCCCCCC)C(=O)CN(CCCCCCCCCC)C(=O)CN(CCCCCCCCCC)C(=O)CN(CCCCCCCCCC)C(=O)CN(CCCCCCCCCC)C(=O)CN(CCc1ccccc1)C(=O)CN(CCc1ccccc1)C(=O)CN(CCN)C(=O)CN(CCc1ccccc1)C(=O)CN(CCc1ccccc1)C(=O)CN(CCN)C(=O)CN(CCc1ccccc1)C(=O)CN(CCc1ccccc1)C(=O)CNCCN [Compound 22] | 6.63E+01 RLU | 6.77E+01 RLU | 9.23E+01 RLU | 2.13E+01 RLU | 3.53E+01 RLU | 8.83E+01 RLU | 2.50E+02 RLU | 5.80E+02 RLU | 118% | 104% |
